Assay results published in patent US4603198A, “Cephalosporin derivatives” (Daiichi Seiyaku Co., Ltd., priority 1982, dated 1986).
≈ marks a conversion by molar mass, not a printed value. Where a name gives a salt, the structure may show the parent alone.

Columns and labels:
E. coli, NIHJ = assay: antibacterial activity (in vitro), Minimum Inhibitory Concentration; type: cell-based; details: Escherichia coli, 10^6 /ml of bacteria were seeded, syn isomers
Excerpt: (§1) The antibacterial activity (in vitro) of the preferred compounds of this invention are shown in the following Table 1 in comparison with known compounds having a structure similar to that of the compounds of this invention. All compounds of Table 1 are syn isomers.
(§2) Minimum Inhibitory Concentration (MIC, mcg/ml) (10^6 /ml of bacteria

Pr. vulgaris, 08601 = assay: as above; type: cell-based; details: Proteus vulgaris, 10^6 /ml of bacteria were seeded, syn isomers
Excerpt: as §1, §2

Ps. aeruginosa, 32104 = assay: as above; type: cell-based; details: Pseudomonas aeruginosa, 10^6 /ml of bacteria were seeded, syn isomers
Excerpt: as §1, §2

Ps. aeruginosa, 32121 = assay: as above; type: cell-based; details: Pseudomonas aeruginosa, 10^6 /ml of bacteria were seeded, syn isomers
Excerpt: as §1, §2

S. aureus, 209p = assay: as above; type: cell-based; details: Staphylococcus aureus, 10^6 /ml of bacteria were seeded, syn isomers
Excerpt: as §1, §2

Ser. marcescens, 10104 = assay: as above; type: cell-based; details: Serratia marcescens, 10^6 /ml of bacteria were seeded, syn isomers
Excerpt: as §1, §2

[1] = acute toxicity in mice (i.v.); details: mouse, in vivo, iv

SMILES | MIC (E. coli, NIHJ) [mg/L] | MIC (Pr. vulgaris, 08601) [mg/L] | MIC (Ps. aeruginosa, 32104) [mg/L] | MIC (Ps. aeruginosa, 32121) [mg/L] | MIC (S. aureus, 209p) [mg/L] | MIC (Ser. marcescens, 10104) [mg/L] | LD50 [1] [mg/kg]
Nc1nc(/C(=N/OCc2c[nH]cn2)C(=O)N[C@@H]2C(=O)N3C(C(=O)[O-])=C(C[n+]4ccccc4)CS[C@H]23)cs1 [IA, 7β-(2-(2-aminothiazol-4-yl)-2-((imidazol-4-yl)methoxyimino)acetamido)-3-(1-pyridinio)methyl-3-cephem-4-carboxylate trihydrochloride] | 0.1 | 0.1 | 1.56 | 1.56 | 0.2 | 0.1 | > 2500
NC(=O)c1cc[n+](CC2=C(C(=O)[O-])N3C(=O)[C@@H](NC(=O)/C(=N\OCc4c[nH]cn4)c4csc(N)n4)[C@H]3SC2)cc1 [IB, 7β-(2-(2-aminothiazol-4-yl)-2-((imidazol-4-yl)methoxyimino)acetamido)-3-(4-carbamoyl-1-pyridinio)methyl-3-cephem-4-carboxylate trihydrochloride] | < 0.1 | 0.2 | 1.56 | 12.5 | 1.56 | 0.2 | 
Nc1nc(/C(=N/OCc2cc[nH]n2)C(=O)N[C@@H]2C(=O)N3C(C(=O)[O-])=C(C[n+]4ccccc4)CS[C@H]23)cs1 [IC, 7β-(2-(2-aminothiazol-4-yl)-2-((pyrazol-3-yl)methoxyimino)acetamido)-3-(1-pyridinio)methyl-3-cephem-4-carboxylate] | < 0.1 | 0.1 (≈ 0.185 µM) | 1.56 (≈ 2.89 µM) | 3.13 (≈ 5.79 µM) | 0.39 (≈ 0.721 µM) | 0.2 (≈ 0.37 µM) | > 2000
Cn1nnnc1SCC1=C(C(=O)O)N2C(=O)[C@@H](NC(=O)/C(=N\OCc3c[nH]cn3)c3csc(N)n3)[C@H]2SC1 [ID, 7β-(2-(2-aminothiazol-4-yl)-2-((imidazol-4-yl)methoxyimino)acetamido)-3-(1-methyl-1H-tetrazol-5-yl)thiomethyl-3-cephem-4-carboxylic acid dihydrochloride] | < 0.1 | < 0.1 | 12.5 | 3.13 | 0.78 | 0.39 | 
Nc1nc(/C(=N/OCc2cn[nH]c2)C(=O)N[C@@H]2C(=O)N3C(C(=O)[O-])=C(C[n+]4ccccc4)CS[C@H]23)cs1 [IE, 7β-(2-(2-aminothiazol-4-yl)-2-((pyrazol-4-yl)methoxyimino)acetamido)-3-(1-pyridinio)methyl-3-cephem-4-carboxylate] | < 0.1 | 0.1 (≈ 0.185 µM) | 6.25 (≈ 11.6 µM) | 3.13 (≈ 5.79 µM) | 0.2 (≈ 0.37 µM) | 0.2 (≈ 0.37 µM) | 
Cc1[nH]cnc1CO/N=C(\C(=O)N[C@@H]1C(=O)N2C(C(=O)[O-])=C(C[n+]3ccccc3)CS[C@H]12)c1csc(N)n1 [IF, 7β-(2-(2-aminothiazol-4-yl)-2-((5-methylimidazol-4-yl)methoxyimino)acetamido)-3-(1-pyridino)methyl-3-cephem-4-carboxylate trihydrochloride] | < 0.1 | 0.1 | 3.13 | 3.13 | 0.78 | 0.2 | 
Cc1cc[n+](CC2=C(C(=O)[O-])N3C(=O)[C@@H](NC(=O)/C(=N\OCc4c[nH]cn4)c4csc(N)n4)[C@H]3SC2)cc1 [IG, 7β-(2-(2-aminothiazol-4-yl)-2-((imidazol-4-yl)methoxyimino)acetamido)-3-(4-methyl-1-pyridinio)methyl-3-cephem-4-carboxylate trihydrochloride] | < 0.1 | 0.2 | 3.13 | 3.13 | 1.56 | 0.1 | 
CC(=O)OCC1=C(C(=O)O)N2C(=O)[C@@H](NC(=O)/C(=N\OCc3c[nH]cn3)c3csc(N)n3)[C@H]2SC1 [IH, 7β-(2-(2-aminothiazol-4-yl)-2-((imidazol-4-yl)methoxyimino)acetamido)-3-acetoxymethyl-3-cephem-4-carboxylic acid dihydrochloride] | < 0.1 | < 0.1 | 12.5 | 6.25 | 0.78 | 0.78 | 
CO/N=C(\C(=O)N[C@@H]1C(=O)N2C(C(=O)O)=C(COC(C)=O)CS[C@H]12)c1csc(N)n1 [a, Cephotaxim, reference compound] | < 0.1 | < 0.1 | 25 (≈ 54.9 µM) | 12.5 (≈ 27.4 µM) | 3.13 (≈ 6.87 µM) | 0.39 (≈ 0.856 µM) | 
Nc1nc(/C(=N/OCc2nnn[nH]2)C(=O)N[C@@H]2C(=O)N3C(C(=O)[O-])=C(C[n+]4ccccc4)CS[C@H]23)cs1 [b, 7β-(2-(2-aminothiazol-4-yl)-2-((1H-tetrazol-5-yl)methoxyimino)acetamido)-3-pyridiniomethyl-3-cephem-4-carboxylate, reference compound] | 0.1 (≈ 0.184 µM) | 0.1 (≈ 0.184 µM) | 12.5 (≈ 23 µM) | 50 (≈ 92.2 µM) | 3.13 (≈ 5.77 µM) | 0.39 (≈ 0.719 µM) | 
Nc1nc(/C(=N/OCc2ncc[nH]2)C(=O)N[C@@H]2C(=O)N3C(C(=O)[O-])=C(C[n+]4ccccc4)CS[C@H]23)cs1 [c, 7β-(2-(2-aminothiazol-4-yl)-2-((imidazol-2-yl)methoxyimino)acetamido)-3-pyridiniomethyl-3-cephem-4-carboxylate, reference compound] | 0.2 (≈ 0.37 µM) | 0.39 (≈ 0.721 µM) | 6.25 (≈ 11.6 µM) | 25 (≈ 46.2 µM) | 1.56 (≈ 2.89 µM) | 0.2 (≈ 0.37 µM) | 
